From patent US4605744A, “Imidazole derivatives” (Hoffmann-La Roche Inc., priority 1985, dated 1986)
≈ marks a conversion by molar mass, not a printed value. Where “and” joins values, the source holds several entries; their conditions need not be identical. Equal entries are not always repeated. Where two headings read alike, the source gives them in different places.

How the values were obtained:
Assay in all cases: In vitro antibacterial activity (MIC)
Format in all cases: cell-based
K. pneumoniae A = settings: K. pneumoniae A
Procedure: (§1) Drug dilutions are prepared in Mueller-Hinton broth ranging from 128 to 0.008 μg/ml. The diluted agents are dispensed in 100 μl amounts into the wells of a 96-well tray and used immediately or frozen at -10° to -70° C. until needed. Using an automated inoculator, 1.5 μl of a 10^-2 dilution of an overnight culture is added to each well of the tray. The tops of the trays are then sealed using transparent tape and incubated overnight at 37° C. The trays are examined with the aid of a viewer. The lowest concentration at which no growth is observed is considered to be the minimum inhibitory concentration (MIC).

K. pneumoniae 5096 = tested on: K. pneumoniae 5096
Procedure: as §1

S. marcescens S4 = tested on: S. marcescens S4
Procedure: as §1

P. aeruginosa Stone 130 = tested on: P. aeruginosa Stone 130
Procedure: as §1

E. coli 387-1 = settings: E. coli 387-1
Procedure: as §1

P. vulgaris 100 = settings: P. vulgaris 100
Procedure: as §1

S. pneumoniae 6302 = tested on: S. pneumoniae 6302
Procedure: as §1

S. marcescens S1 = tested on: S. marcescens S1
Procedure: as §1

C. diversus CDC 1663-72 = settings: C. diversus CDC 1663-72
Procedure: as §1

K. pneumoniae HE7 = tested on: K. pneumoniae HE7
Procedure: as §1

S. pyogenes 4 = tested on: S. pyogenes 4
Procedure: as §1

E. aerogenes 83 = tested on: E. aerogenes 83
Procedure: as §1

E. coli R-563 = tested on: E. coli R-563
Procedure: as §1

P. mirabilis 503-1136 = settings: P. mirabilis 503-1136
Procedure: as §1

E. coli 5152 = tested on: E. coli 5152
Procedure: as §1

P. vulgaris ATCC 6380 = settings: P. vulgaris ATCC 6380
Procedure: as §1

P. vulgaris 101 = settings: P. vulgaris 101
Procedure: as §1

E. coli 4 = settings: E. coli 4
Procedure: as §1

K. pneumoniae 503-964 = tested on: K. pneumoniae 503-964
Procedure: as §1

P. mirabilis 2 = tested on: P. mirabilis 2
Procedure: as §1

S. marcescens S147 = tested on: S. marcescens S147
Procedure: as §1

P. mirabilis 620A = settings: P. mirabilis 620A
Procedure: as §1

K. pneumoniae 503-994 = settings: K. pneumoniae 503-994
Procedure: as §1

S. marcescens 5805 = settings: S. marcescens 5805
Procedure: as §1

P. aeruginosa 8780 = tested on: P. aeruginosa 8780
Procedure: as §1

P. aeruginosa 503-56 = tested on: P. aeruginosa 503-56
Procedure: as §1

E. cloacae P99 = settings: E. cloacae P99
Procedure: as §1

P. rettgeri ATCC 9250 = tested on: P. rettgeri ATCC 9250
Procedure: as §1

S. typhi P58A = tested on: S. typhi P58A
Procedure: as §1

P. aeruginosa 5712 = tested on: P. aeruginosa 5712
Procedure: as §1

C. freundii CDC6 = tested on: C. freundii CDC6
Procedure: as §1

S. pneumoniae SC = tested on: S. pneumoniae SC
Procedure: as §1

E. cloacae 9295 = tested on: E. cloacae 9295
Procedure: as §1

S. pyogenes 503-782 = tested on: S. pyogenes 503-782
Procedure: as §1

K. pneumoniae 4964 = settings: K. pneumoniae 4964
Procedure: as §1

P. aeruginosa 8710 = tested on: P. aeruginosa 8710
Procedure: as §1

S. marcescens SM = tested on: S. marcescens SM
Procedure: as §1

E. coli 48 = settings: E. coli 48
Procedure: as §1

P. aeruginosa 6148B = tested on: P. aeruginosa 6148B
Procedure: as §1

K. pneumoniae 35 = tested on: K. pneumoniae 35
Procedure: as §1

S. aureus Smith = tested on: S. aureus Smith
Procedure: as §1

S. marcescens S714 = settings: S. marcescens S714
Procedure: as §1

P. aeruginosa 503-820 = tested on: P. aeruginosa 503-820
Procedure: as §1

CC1(C)S[C@@H]2[C@H](N=CN3CCCC(CCn4ccnc4)CC3)C(=O)N2[C@H]1C(=O)O.Cl.O (single isomer, unassigned) [D]
MIC (K. pneumoniae A): 0.031 µg/mL | MIC (K. pneumoniae 5096; K. pneumoniae 5096): > 128 µg/mL | MIC (S. marcescens S4; S. marcescens S4): 1 µg/mL | MIC (P. aeruginosa Stone 130): > 128 µg/mL | MIC (E. coli 387-1): 0.125 µg/mL | MIC (P. vulgaris 100): 16 µg/mL | MIC (S. pneumoniae 6302; S. pneumoniae 6302): 8 µg/mL | MIC (S. marcescens S1; S. marcescens S1): 0.5 µg/mL | MIC (C. diversus CDC 1663-72): 0.125 µg/mL | MIC (K. pneumoniae HE7; K. pneumoniae HE7): > 128 µg/mL | MIC (S. pyogenes 4; S. pyogenes 4): 1 µg/mL | MIC (E. aerogenes 83; E. aerogenes 83): 16 µg/mL | MIC (E. coli R-563; E. coli R-563): 0.125 µg/mL | MIC (P. mirabilis 503-1136): 16 µg/mL | MIC (E. coli 5152; E. coli 5152): 16 µg/mL | MIC (P. vulgaris ATCC 6380): 0.125 µg/mL | MIC (P. vulgaris 101): 32 µg/mL | MIC (E. coli 4): 0.125 µg/mL | MIC (K. pneumoniae 503-964; K. pneumoniae 503-964): 0.25 µg/mL | MIC (P. mirabilis 2; P. mirabilis 2): 0.5 µg/mL | MIC (S. marcescens S147; S. marcescens S147): 0.125 µg/mL | MIC (P. mirabilis 620A): 64 µg/mL | MIC (K. pneumoniae 503-994): 0.125 µg/mL | MIC (S. marcescens 5805): 2 µg/mL | MIC (P. aeruginosa 8780; P. aeruginosa 8780): > 128 µg/mL | MIC (P. aeruginosa 503-56; P. aeruginosa 503-56): > 128 µg/mL | MIC (E. cloacae P99): 0.125 µg/mL | MIC (P. rettgeri ATCC 9250; P. rettgeri ATCC 9250): 0.5 µg/mL | MIC (S. typhi P58A): 0.125 µg/mL | MIC (P. aeruginosa 5712; P. aeruginosa 5712): > 128 µg/mL | MIC (C. freundii CDC6; C. freundii CDC6): 0.25 µg/mL | MIC (S. pneumoniae SC): 4 µg/mL | MIC (E. cloacae 9295; E. cloacae 9295): 0.5 µg/mL | MIC (S. pyogenes 503-782; S. pyogenes 503-782): > 128 µg/mL | MIC (K. pneumoniae 4964): 1 µg/mL | MIC (P. aeruginosa 8710; P. aeruginosa 8710): > 128 µg/mL | MIC (S. marcescens SM): 0.25 µg/mL | MIC (E. coli 48): 0.125 µg/mL | MIC (P. aeruginosa 6148B): > 128 µg/mL | MIC (K. pneumoniae 35; K. pneumoniae 35): 0.25 µg/mL | MIC (S. aureus Smith; S. aureus Smith): 32 µg/mL | MIC (S. marcescens S714): 1 µg/mL

CC1(C)S[C@@H]2[C@H](/N=C/N3CCCCCC3)C(=O)N2[C@H]1C(=O)O [Amdinocillin, amdinocillin, reference compound]
MIC (K. pneumoniae 5096; Klebsiella pneumoniae, 5096, K. pneumoniae 5096): 128 µg/mL (≈ 393 µM) | MIC (K. pneumoniae 5096; Klebsiella pneumoniae, K. pneumoniae 5096, read-out: MIC): 32 µg/mL (≈ 98.3 µM) | MIC (S. marcescens S4; S. marcescens S4): 0.5 µg/mL (≈ 1.54 µM) | MIC (S. marcescens S4; Serratia marcescens, S4, S. marcescens S4, read-out: MIC): 1 µg/mL (≈ 3.07 µM) | MIC (P. aeruginosa Stone 130): 128 µg/mL (≈ 393 µM) | MIC (P. aeruginosa Stone 130; Pseudomonas aeruginosa, STONE130): > 128 µg/mL | MIC (P. aeruginosa 503-820; P. aeruginosa 503-820): 128 µg/mL (≈ 393 µM) | MIC (P. aeruginosa 503-820; Pseudomonas aeruginosa, 503820, P. aeruginosa 503-820): > 128 µg/mL | MIC (P. aeruginosa 503-820; Pseudomonas aeruginosa, 503820, P. aeruginosa 503-820, read-out: MIC): 64 µg/mL (≈ 197 µM) | MIC (S. pneumoniae 6302; S. pneumoniae 6302): 2 µg/mL (≈ 6.15 µM) | MIC (S. pneumoniae 6302; Streptococcus pneumoniae, 6302, S. pneumoniae 6302, read-out: MIC): 4 µg/mL (≈ 12.3 µM) | MIC (S. marcescens S1; Serratia marcescens, S1): 0.125 µg/mL (≈ 0.384 µM) | MIC (K. pneumoniae HE7; Klebsiella pneumoniae, HE7, K. pneumoniae HE7): > 128 µg/mL | MIC (K. pneumoniae HE7; Klebsiella pneumoniae, K. pneumoniae HE7, read-out: MIC): 64 µg/mL (≈ 197 µM) | MIC (S. pyogenes 4; S. pyogenes 4): 2 µg/mL (≈ 6.15 µM) | MIC (S. pyogenes 4; Streptococcus pyogenes, 4, S. pyogenes 4, read-out: MIC): 1 µg/mL (≈ 3.07 µM) | MIC (E. aerogenes 83; E. aerogenes 83): 4 µg/mL (≈ 12.3 µM) | MIC (E. aerogenes 83; Klebsiella aerogenes, 83, E. aerogenes 83, read-out: MIC): 8 µg/mL (≈ 24.6 µM) | MIC (E. coli R-563; Escherichia coli, R563): 0.125 µg/mL (≈ 0.384 µM) | MIC (E. coli 5152; E. coli 5152): 16 µg/mL (≈ 49.2 µM) | MIC (E. coli 5152; Escherichia coli, 5152, E. coli 5152, read-out: MIC): 8 µg/mL (≈ 24.6 µM) | MIC (K. pneumoniae 503-964; Klebsiella pneumoniae, 503964, K. pneumoniae 503-964): 0.125 µg/mL (≈ 0.384 µM) | MIC (K. pneumoniae 503-964; Klebsiella pneumoniae, 503964, K. pneumoniae 503-964, read-out: MIC): 0.062 µg/mL (≈ 0.191 µM) | MIC (P. mirabilis 2; Proteus mirabilis, 2): 0.125 µg/mL (≈ 0.384 µM) | MIC (S. marcescens S147; Serratia marcescens, S147, S. marcescens S147): 0.125 µg/mL (≈ 0.384 µM) | MIC (S. marcescens S147; Serratia marcescens, S. marcescens S147, read-out: MIC): 0.062 µg/mL (≈ 0.191 µM) | MIC (P. aeruginosa 8780; Pseudomonas aeruginosa, 8780): > 128 µg/mL | MIC (P. aeruginosa 503-56; P. aeruginosa 503-56): 128 µg/mL (≈ 393 µM) | MIC (P. aeruginosa 503-56; Pseudomonas aeruginosa, 50356, P. aeruginosa 503-56): > 128 µg/mL | MIC (P. rettgeri ATCC 9250; Providencia rettgeri, ATCC9250): 0.125 µg/mL (≈ 0.384 µM) | MIC (P. aeruginosa 5712; Pseudomonas aeruginosa, 5712): > 128 µg/mL | MIC (C. freundii CDC6; Citrobacter freundii, CDC6): 0.125 µg/mL (≈ 0.384 µM) | MIC (S. pneumoniae SC): 1 µg/mL (≈ 3.07 µM) | MIC (S. pneumoniae SC; Streptococcus pneumoniae, read-out: MIC): 2 µg/mL (≈ 6.15 µM) | MIC (E. cloacae 9295; Enterobacter cloacae, 9295): 0.125 µg/mL (≈ 0.384 µM) | MIC (S. pyogenes 503-782; Streptococcus pyogenes, 503782, S. pyogenes 503-782): > 128 µg/mL | MIC (S. pyogenes 503-782; Streptococcus pyogenes, 503782, S. pyogenes 503-782, read-out: MIC): 1 µg/mL (≈ 3.07 µM) | MIC (P. aeruginosa 8710; P. aeruginosa 8710): 128 µg/mL (≈ 393 µM) | MIC (P. aeruginosa 8710; Pseudomonas aeruginosa, 8710, P. aeruginosa 8710): > 128 µg/mL | MIC (S. marcescens SM; Serratia marcescens): 0.125 µg/mL (≈ 0.384 µM) | MIC (S. marcescens SM; Serratia marcescens, read-out: MIC): 0.062 µg/mL (≈ 0.191 µM) | MIC (P. aeruginosa 6148B): 128 µg/mL (≈ 393 µM) | MIC (P. aeruginosa 6148B; Pseudomonas aeruginosa, 6148B): > 128 µg/mL | MIC (P. aeruginosa 6148B; Pseudomonas aeruginosa, read-out: MIC): 64 µg/mL (≈ 197 µM) | MIC (K. pneumoniae 35; Klebsiella pneumoniae, 35, K. pneumoniae 35): 0.125 µg/mL (≈ 0.384 µM) | MIC (K. pneumoniae 35; Klebsiella pneumoniae, K. pneumoniae 35, read-out: MIC): 0.062 µg/mL (≈ 0.191 µM) | MIC (S. aureus Smith; S. aureus Smith): 8 µg/mL and 16 µg/mL | MIC (S. aureus Smith; Staphylococcus aureus): 16 µg/mL (≈ 49.2 µM)
